{
  "source": "patent US11419827B2",
  "about": "“Protecting tissue and mitigating injury from radiation-induced ionizing events” (Humanetics Corporation, priority 2017, dated 2022)",
  "key": {"[1]": {"conditions": "in several pharmaceutically acceptable solvents; cited from earlier work"}, "[2]": {"system": "CXCL1 cytokine, G-CSF, TNFα", "experiment": "Multi-cytokine LUMINEX panel on peripheral blood of mice exposed to 6 Gy high LET proton radiation", "assay_type": "in vivo", "conditions": "200 mg/kg s.c. 24 hours before 6 Gy high LET proton radiation; blood taken 3, 6 and 12 days after exposure", "description": "FIGS. 4A, 4B, and 4C are graphs plotting the levels of CXCL1 cytokine (FIG. 4A), granulocyte colony stimulating factor (G-CSF; FIG. 4B), and tumor necrosis factor alpha (TNFα; FIG. 4C) in blood from mice injected with 200 mg/kg genistein (s.c.) 24 hours prior to exposure to 6 Gy high LET proton radiation. In these experiments, blood was drawn from mice on the indicated days following radiation exposure, and the levels of cytokines were assayed.\n(§1) Mice were prophylactically administered genistein (200 mg/kg) via s.c. injection 24 hours prior to radiation exposure. Appropriate sham radiation and vehicle controls were applied. Radiation exposures of 6 Gy with high-LET protons [50 MeV fully modulated spread-out Bragg peak (SOBP)] were utilized. The following parameters were examined:\nCytokine response—Peripheral blood was taken from the treated and irradiated mice 3, 6, and 12 days after radiation exposure, and assessed using a multi-cytokine LUMINEX® panel to evaluate the global inflammatory cytokine response."}, "Human cardiomyocytes": {"system": "Human cardiomyocytes", "experiment": "Live cell counts of human cardiomyocytes after mixed field (32% neutron, 68% gamma) radiation", "assay_type": "cell-based", "conditions": "treated 24 hours before exposure to various doses of MF radiation; counts 3 days after exposure", "description": "FIG. 5 is a graph plotting the number of live human cardiomyocytes after treatment of the cells with genistein 24 hours before exposure to various doses of mixed field (32% neutron, 68% gamma) radiation (henceforth referred to as “MF” radiation). Live cell counts were performed 3 days after radiation exposure.\nHuman cardiomyocytes were treated with genistein 24 hours before exposure to various doses of mixed field (“MF,” 32% neutron, 68% gamma) radiation. Live cell counts were performed 3 days after radiation exposure."}, "p53 and γH2AX": {"system": "p53 and γH2AX", "experiment": "Western blot for DNA damage markers p53 and γH2AX in heart and lung tissue of mice exposed to 6 Gy high LET proton radiation", "assay_type": "in vivo", "conditions": "200 mg/kg s.c. 24 hours before 6 Gy high LET proton radiation, tissues harvested 3 days later, vs tubulin control", "description": "FIG. 2 is a western blot with heart and lung tissue extracted from animals that were treated with or without genistein [200 mg/kg subcutaneously (s.c.)] and then exposed to 6 Gy high LET proton radiation 24 hours after treatment. The indicated tissues were harvested 3 days later. The levels of p53 (a DNA damage response protein) and γH2AX (a direct measurement of DNA damage) were measured and compared to a tubulin control.\nas §1\nDNA damage in tissues—Lungs and heart were surgically removed and subjected to thin-slice sectioning, followed by western blot analysis for the DNA damage markers p53 and γH2AX (an effective measure of proton radiation-induced biological damage; see, Liu et al., Radiation Oncology 91(5):1081-1089, 2015), as well as tubulin control."}},
  "note": "“Also recorded” adds a separate entry of the source.",
  "data": [
    {"smiles": "O=c1c(-c2ccc(O)cc2)coc2cc(O)cc(O)c12", "note": "[genistein, 5,7-dihydroxy-3-(4-hydroxyphenyl)-chromen-4-one]", "values": [
      {"measurement": "solubility", "setting": "[1]", "value": "low to virtually no solubility"},
      {"measurement": "expression of CXCL1 cytokine in blood", "setting": "[2]", "value": "mitigated the effects of proton radiation"},
      {"measurement": "expression of G-CSF in blood", "setting": "[2]", "value": "mitigated the effects of proton radiation"},
      {"measurement": "expression of TNFα in blood", "setting": "[2]", "value": "mitigated the effects of proton radiation"},
      {"measurement": "survival (live cell counts) after MF radiation", "setting": "Human cardiomyocytes", "value": "increased survival"},
      {"measurement": "p53 levels in response to radiation exposure", "setting": "p53 and γH2AX", "value": "prevented a marked increase in p53 levels"},
      {"measurement": "p53 levels in response to radiation exposure", "setting": "p53 and γH2AX; listed as Genistein", "value": "ameliorated the effects of proton radiation"},
      {"measurement": "γH2AX levels", "setting": "p53 and γH2AX; listed as Genistein", "value": "lower levels of γH2AX; also recorded: ameliorated the effects of proton radiation"}
    ]}
  ]
}
